Experiments:
PI3Kα = PI3Kα (Homo sapiens (Human), UniProt P42336); settings: read-out: PI3Kα AlphaScreen ® Ki
[1] = biological target: ProfilerPro Kinase Selectivity Assay Kit kinases (Homo sapiens, UniProt Q05513); assay type: biochemical; settings: PKC zeta; 1 μM compound concentration
Procedure: (§1) Compounds were profiled using a LabChip® EZ Reader II platform and a ProfilerPro Kinase Selectivity Assay Kit (Caliper Lifesciences Inc., Hopkinton, Mass.). Compounds were tested at a concentration of 1 M in duplicate, with mean data reported as percent of control (POC).

[2] = biological target: ProfilerPro Kinase Selectivity Assay Kit kinases (Homo sapiens, UniProt P08581); assay type: biochemical; settings: cMET; 1 μM compound concentration
Procedure: as §1

[3] = biological target: ProfilerPro Kinase Selectivity Assay Kit kinases (Homo sapiens, UniProt P31751); assay type: biochemical; settings: AKT2; 1 μM compound concentration
Procedure: as §1

[4] = biological target: ProfilerPro Kinase Selectivity Assay Kit kinases (Homo sapiens, UniProt P06213); assay type: biochemical; settings: INSR; 1 μM compound concentration
Procedure: as §1

[5] = biological target: ProfilerPro Kinase Selectivity Assay Kit kinases (Homo sapiens, UniProt Q9BZL6); assay type: biochemical; settings: PKD2; 1 μM compound concentration
Procedure: as §1

[6] = biological target: ProfilerPro Kinase Selectivity Assay Kit kinases (Homo sapiens, UniProt P49841); assay type: biochemical; settings: GSK3 beta; 1 μM compound concentration
Procedure: as §1

[7] = biological target: ProfilerPro Kinase Selectivity Assay Kit kinases (Homo sapiens, UniProt P12931); assay type: biochemical; settings: SRC; 1 μM compound concentration
Procedure: as §1

[8] = biological target: ProfilerPro Kinase Selectivity Assay Kit kinases (Homo sapiens, UniProt P31749); assay type: biochemical; settings: AKT1; 1 μM compound concentration
Procedure: as §1

[9] = biological target: ProfilerPro Kinase Selectivity Assay Kit kinases (Homo sapiens, UniProt P24941); assay type: biochemical; settings: CDK2; 1 μM compound concentration
Procedure: as §1

[10] = biological target: ProfilerPro Kinase Selectivity Assay Kit kinases (Homo sapiens, UniProt Q9P0L2); assay type: biochemical; settings: MARK1; 1 μM compound concentration
Procedure: as §1

[11] = biological target: ProfilerPro Kinase Selectivity Assay Kit kinases (Homo sapiens, UniProt Q9P1W9); assay type: biochemical; settings: PIM2; 1 μM compound concentration
Procedure: as §1

[12] = biological target: ProfilerPro Kinase Selectivity Assay Kit kinases (Homo sapiens, UniProt O14757); assay type: biochemical; settings: CHK1; 1 μM compound concentration
Procedure: as §1

[13] = biological target: ProfilerPro Kinase Selectivity Assay Kit kinases (Homo sapiens, UniProt Q15418); assay type: biochemical; settings: RSK1; 1 μM compound concentration
Procedure: as §1

[14] = biological target: ProfilerPro Kinase Selectivity Assay Kit kinases (Homo sapiens, UniProt O96017); assay type: biochemical; settings: CHK2; 1 μM compound concentration
Procedure: as §1

[15] = tested on: phosphorylation of Akt at Serine 473 in U87 MG cells; test: cells; settings: Homo sapiens, U-87 MG, 2 h, read-out: U87Cell IC50, pAkt (Ser 473), U87 MG cells, two hours with compound

Chain of PI3Kα (P42336 whole entry): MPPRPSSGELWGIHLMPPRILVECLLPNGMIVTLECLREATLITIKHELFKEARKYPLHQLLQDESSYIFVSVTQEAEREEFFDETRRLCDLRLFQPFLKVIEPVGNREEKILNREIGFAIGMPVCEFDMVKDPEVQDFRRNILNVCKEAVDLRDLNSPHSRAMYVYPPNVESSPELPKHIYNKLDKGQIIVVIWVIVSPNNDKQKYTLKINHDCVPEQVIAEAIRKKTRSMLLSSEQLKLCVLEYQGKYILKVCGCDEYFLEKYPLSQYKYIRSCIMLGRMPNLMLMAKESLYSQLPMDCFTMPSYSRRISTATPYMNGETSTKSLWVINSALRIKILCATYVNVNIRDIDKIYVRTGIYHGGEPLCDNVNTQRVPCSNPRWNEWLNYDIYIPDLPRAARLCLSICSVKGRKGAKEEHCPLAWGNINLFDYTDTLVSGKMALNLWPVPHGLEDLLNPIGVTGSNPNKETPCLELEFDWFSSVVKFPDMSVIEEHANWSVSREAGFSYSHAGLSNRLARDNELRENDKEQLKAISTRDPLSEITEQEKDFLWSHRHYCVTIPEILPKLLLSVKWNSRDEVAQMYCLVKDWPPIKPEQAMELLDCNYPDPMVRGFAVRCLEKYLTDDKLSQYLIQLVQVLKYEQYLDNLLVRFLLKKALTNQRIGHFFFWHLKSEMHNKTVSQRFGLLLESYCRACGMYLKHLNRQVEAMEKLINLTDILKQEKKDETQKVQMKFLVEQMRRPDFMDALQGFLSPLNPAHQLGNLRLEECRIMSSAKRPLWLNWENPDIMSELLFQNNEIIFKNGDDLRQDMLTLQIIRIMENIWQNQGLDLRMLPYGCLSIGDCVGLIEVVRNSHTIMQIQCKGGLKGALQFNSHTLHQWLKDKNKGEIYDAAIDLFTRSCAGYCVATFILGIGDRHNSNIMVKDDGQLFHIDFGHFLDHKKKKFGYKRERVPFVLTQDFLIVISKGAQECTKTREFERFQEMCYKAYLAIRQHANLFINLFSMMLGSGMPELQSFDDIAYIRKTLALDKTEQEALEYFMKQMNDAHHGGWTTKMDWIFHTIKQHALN
Chain of PI3Kα (P27986 whole entry partner): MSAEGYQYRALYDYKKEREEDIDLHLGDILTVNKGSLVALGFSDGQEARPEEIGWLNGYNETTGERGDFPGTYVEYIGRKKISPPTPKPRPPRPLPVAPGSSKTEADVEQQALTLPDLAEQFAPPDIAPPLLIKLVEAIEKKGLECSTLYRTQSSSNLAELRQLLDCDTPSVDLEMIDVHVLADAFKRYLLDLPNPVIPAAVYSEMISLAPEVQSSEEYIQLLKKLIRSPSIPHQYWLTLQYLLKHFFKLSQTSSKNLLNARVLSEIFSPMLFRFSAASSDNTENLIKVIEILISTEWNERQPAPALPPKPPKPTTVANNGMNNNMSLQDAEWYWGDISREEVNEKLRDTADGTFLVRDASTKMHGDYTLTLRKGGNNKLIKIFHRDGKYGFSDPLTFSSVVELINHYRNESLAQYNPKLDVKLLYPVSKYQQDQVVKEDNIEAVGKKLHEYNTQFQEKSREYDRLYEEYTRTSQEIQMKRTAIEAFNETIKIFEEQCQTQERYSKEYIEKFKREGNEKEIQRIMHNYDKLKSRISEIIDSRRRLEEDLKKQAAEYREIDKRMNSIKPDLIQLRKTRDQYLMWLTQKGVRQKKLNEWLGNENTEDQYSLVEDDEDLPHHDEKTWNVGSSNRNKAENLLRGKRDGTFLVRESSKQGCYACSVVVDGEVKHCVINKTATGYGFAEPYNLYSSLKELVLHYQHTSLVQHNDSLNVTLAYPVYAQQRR
Chain of ProfilerPro Kinase Selectivity Assay Kit kinases (Homo sapiens, UniProt P12931) (P12931 2-536 limits assumed): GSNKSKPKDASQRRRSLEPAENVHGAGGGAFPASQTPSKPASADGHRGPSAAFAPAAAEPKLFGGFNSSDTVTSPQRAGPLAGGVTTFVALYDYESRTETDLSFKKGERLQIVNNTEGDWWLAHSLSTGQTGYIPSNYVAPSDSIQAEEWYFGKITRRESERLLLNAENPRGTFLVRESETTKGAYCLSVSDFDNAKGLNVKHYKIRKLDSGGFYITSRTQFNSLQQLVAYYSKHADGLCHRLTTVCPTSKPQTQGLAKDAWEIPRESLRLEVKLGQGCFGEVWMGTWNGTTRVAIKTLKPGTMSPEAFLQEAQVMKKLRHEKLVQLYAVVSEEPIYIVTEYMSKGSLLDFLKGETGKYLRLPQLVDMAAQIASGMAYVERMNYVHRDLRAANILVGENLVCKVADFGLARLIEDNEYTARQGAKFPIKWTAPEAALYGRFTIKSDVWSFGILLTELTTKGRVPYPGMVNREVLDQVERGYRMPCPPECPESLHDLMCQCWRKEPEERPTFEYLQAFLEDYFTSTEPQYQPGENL
Chain of ProfilerPro Kinase Selectivity Assay Kit kinases (Homo sapiens, UniProt P08581) (P08581 25-1390 limits assumed): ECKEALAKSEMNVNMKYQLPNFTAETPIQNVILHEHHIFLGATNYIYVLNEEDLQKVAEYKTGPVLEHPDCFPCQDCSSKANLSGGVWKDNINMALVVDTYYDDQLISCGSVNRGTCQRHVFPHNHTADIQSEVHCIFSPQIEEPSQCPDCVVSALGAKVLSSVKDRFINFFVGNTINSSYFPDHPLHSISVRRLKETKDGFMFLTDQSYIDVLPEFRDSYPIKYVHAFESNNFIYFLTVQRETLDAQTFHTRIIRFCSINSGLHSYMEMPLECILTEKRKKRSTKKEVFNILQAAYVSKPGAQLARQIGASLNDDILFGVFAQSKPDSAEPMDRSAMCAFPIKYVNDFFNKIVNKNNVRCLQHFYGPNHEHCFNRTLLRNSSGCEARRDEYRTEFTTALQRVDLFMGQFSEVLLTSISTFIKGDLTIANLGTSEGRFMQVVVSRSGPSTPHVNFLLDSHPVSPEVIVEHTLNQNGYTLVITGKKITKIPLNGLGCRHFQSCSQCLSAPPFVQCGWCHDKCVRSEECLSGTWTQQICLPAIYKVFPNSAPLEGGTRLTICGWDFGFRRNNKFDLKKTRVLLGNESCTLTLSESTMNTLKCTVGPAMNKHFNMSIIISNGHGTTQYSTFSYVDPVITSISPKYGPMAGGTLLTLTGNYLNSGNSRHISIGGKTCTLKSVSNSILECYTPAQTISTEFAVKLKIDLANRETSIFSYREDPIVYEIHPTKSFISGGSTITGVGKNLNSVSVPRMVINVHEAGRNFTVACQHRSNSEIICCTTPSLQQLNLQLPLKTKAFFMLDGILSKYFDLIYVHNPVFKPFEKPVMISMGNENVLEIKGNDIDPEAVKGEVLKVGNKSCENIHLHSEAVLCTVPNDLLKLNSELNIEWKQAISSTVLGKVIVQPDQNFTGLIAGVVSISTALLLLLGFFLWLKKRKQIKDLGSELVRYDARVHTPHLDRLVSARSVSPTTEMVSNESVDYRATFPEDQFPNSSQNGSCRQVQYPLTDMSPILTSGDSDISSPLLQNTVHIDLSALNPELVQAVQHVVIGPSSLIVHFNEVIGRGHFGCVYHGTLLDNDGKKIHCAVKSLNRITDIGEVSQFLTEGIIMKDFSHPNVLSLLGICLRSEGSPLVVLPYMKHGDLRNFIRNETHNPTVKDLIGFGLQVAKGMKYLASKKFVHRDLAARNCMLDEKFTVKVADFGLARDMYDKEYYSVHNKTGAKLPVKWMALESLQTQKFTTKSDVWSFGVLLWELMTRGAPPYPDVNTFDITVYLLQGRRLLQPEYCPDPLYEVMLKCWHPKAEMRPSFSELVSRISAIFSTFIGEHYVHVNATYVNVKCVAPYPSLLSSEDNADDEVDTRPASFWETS

Row | SMILES | Ki (PI3Kα) | POC (Percent of control) PKC zeta [1] | POC (Percent of control) cMET [2] | POC (Percent of control) AKT2 [3] | POC (Percent of control) INSR [4] | POC (Percent of control) PKD2 [5] | POC (Percent of control) GSK3 beta [6] | POC (Percent of control) SRC [7] | POC (Percent of control) AKT1 [8] | POC (Percent of control) CDK2 [9] | POC (Percent of control) MARK1 [10] | POC (Percent of control) PIM2 [11] | POC (Percent of control) CHK1 [12] | POC (Percent of control) RSK1 [13] | POC (Percent of control) CHK2 [14] | IC50 [15]
1 | c1cnc(Nc2cccc3[nH]ccc23)c(-c2ncnc3[nH]cnc23)c1 [Example 19, N-(3-(9H-Purin-6-yl)Pyridin-2-yl)-1H-Indol-4-Amine] | 5620 nM | 98 POC | 89 POC | 110 POC | 88 POC | 97 POC | 79 POC | 23 POC | 94 POC | 90 POC | 95 POC | 105 POC | 83 POC | 87 POC | 18 POC | 2370 nM
2 | COc1ccc(Nc2ncc(CN3CCN(C(C)=O)CC3)cc2-c2nc(C)nc3[nH]cnc23)cn1 [Example 89, 1-(4-((6-(6-methoxypyridin-3-ylamino)-5-(2-methyl-9H-purin-6-yl)pyridin-3-yl)methyl)piperazin-1-yl)ethanone] | 42 nM | 109 POC | 102 POC | 93 POC | 97 POC | 100 POC | 100 POC | 101 POC | 102 POC | 96 POC | 92 POC | 93 POC | 99 POC | 99 POC | 97 POC | 146 nM
3 | COc1ccc(Nc2ncc(Cc3ccc(S(C)(=O)=O)cc3)cc2-c2nc(C)nc3[nH]cnc23)cn1 [Example 103, N-(6-methoxypyridin-3-yl)-3-(2-methyl-9H-purin-6-yl)-5-(4-(methylsulfonyl)benzyl)pyridin-2-amine] | 2 nM | 98 POC | 94 POC | 89 POC | 95 POC | 87 POC | 96 POC | 89 POC | 94 POC | 100 POC | 131 POC | 96 POC | 107 POC | 100 POC | 94 POC | 28 nM
4 | CCc1cnc(Nc2ccc(OC)nc2)c(-c2nc(C)nc3[nH]cnc23)c1 [Example 74, 5-ethyl-N-(6-methoxypyridin-3-yl)-3-(2-methyl-9H-purin-6-yl)pyridin-2-amine] | 11 nM | 94 POC | 102 POC | 96 POC | 96 POC | 99 POC | 100 POC | 99 POC | 109 POC | 96 POC | 111 POC | 92 POC | 101 POC | 100 POC | 98 POC | 89 nM

From patent US8772480B2, “Inhibitors of PI3 kinase and/or mTOR” (priority 2009, dated 2014)
